Data published in patent US10005767B2, “Compositions and methods for inhibition of the JAK pathway” (Rigel Pharmaceuticals, Inc., priority 2009, dated 2018).
Read-outs that look alike come from different tables or passages of the source.

Tested on: human primary T-cells, IL-2 stimulated proliferation (JAK-1 and JAK-3 dependent; reported as JAK3 activity)
Experiment: Human primary T-cell proliferation stimulated by IL-2 (Example 3)
Format: cell-based
Conditions: tested under conditions described in Example 3 (IL-2 stimulated human primary T-cell proliferation), read-out: ability to inhibit JAK3 activity, IC50 range (Table V)
Excerpt: The activity of the compounds described herein can further be characterized by assaying the effect of the 2,4-pyrimidinediamine compounds described herein on the proliferative response of primary human T-cells. In this assay, primary human T-cells derived from peripheral blood and pre-activated through stimulation of the T-cell receptor and CD28, proliferate in culture in response to the cytokine Interleukin-2 (IL-2). This proliferative response is dependent on the activation of JAK1 and JAK3 tyrosine kinases, which phosphorylate and activate the transcription factor Stat-5. The primary human T-cells are incubated with the 2,4-pyrimidinediamine compounds in the presence of IL-2 for 72 hours, and at the assay endpoint intracellular ATP concentrations are measured to assess cell viability. A reduction in cell proliferation compared to control conditions is indicative of inhibition of the JAK kinase pathway.
Primary human T-cells derived from peripheral blood and pre-activated through stimulation of the T-cell receptor and CD28, proliferate in vitro in response to the cytokine Interleukin-2 (IL-2). This proliferative response is dependent on the activation of JAK-1 and JAK-3 tyrosine kinases, which phosphorylate and activate the transcription factor Stat-5.
Human primary T cells were prepared as follows. […] The lymphocytes at the serum: ficoll interface were recovered and washed twice with 5 volumes of PBS. […] The primary T-cells were stimulated for 3-4 days, then transferred to a fresh flask and maintained in RPMI with 10% FBS and 40 U/mL IL-2.
The day prior to the assay set up, primary T-cells were centrifuged and resuspended in fresh RPMI with 10% FBS but without IL-2 and starved overnight. For the assay, the primary T-cells were centrifuged and resuspended Yssel's medium at 2×10^6 cells/mL. 50 μL of cell suspension containing 80 U/mL IL-2 was added to each well of a flat bottom 96 well black plate. For the unstimulated control, IL-2 was omitted from the last column on the plate. […] 50 μL of 2× compound was added per well in duplicate and the cells were allowed to proliferate for 72 hours at 37° C.
Proliferation was measured using CellTiter-Glo® Luminescent Cell Viability Assay (Promega), which determines the number of viable cells in culture based on quantitation of the ATP present, as an indicator of metabolically active cells. The substrate was thawed and allowed to come to ambient temperature. After mixing the Cell Titer-Glo reagent and diluent together, 100 μL was added to each well. The plates were mixed on an orbital shaker for two minutes to induce lysis and incubated at ambient temperature for an additional ten minutes to allow the signal to equilibrate.
The compound designations in Table V are consistent with those of Tables I-IV above.

Row | SMILES | IC50 (Homo sapiens, T-cell) [nM] | IC50 [nM]
1 | Cc1cnc(Nc2ccc(N3C[C@@H](C)N(C)C[C@@H]3C)nc2)nc1Nc1ccc2oc(=O)[nH]c2c1 (relative stereo) [II-129, 5-methyl-N4-(2-oxo-2,3-dihydro-1,3-benzoxazol-5-yl)-N2-[2-(trans-2,4,5-trimethylpiperazino)pyridin-5-yl]-2,4-pyrimidinediamine] | < 500 | 
2 | Cc1cnc(Nc2ccc(N3C[C@@H](C)NC[C@@H]3C)nc2)nc1Nc1ccc2oc(=O)[nH]c2c1 (relative stereo) [II-130, N2-[2-(trans-2,5-dimethylpiperazino)pyridin-5-yl]-5-methyl-N4-(2-oxo-2,3-dihydro-1,3-benzoxazol-5-yl)-2,4-pyrimidinediamine] | < 500 | 
3 | Cc1cnc(Nc2cccc(C=O)c2)nc1Nc1ccc2oc(=O)[nH]c2c1 [Compound I-1, N4-(benzo[d]oxazol-2(3H)-on-5-yl)-N2-(3-formylphenyl)-5-methylpyrimidine-2,4-diamine] | 500 to 5000 | 
4 | Cc1cnc(Nc2cccc(C(N)=O)c2)nc1Nc1ccc2oc(=O)[nH]c2c1 [Compound I-2, N4-(benzo[d]oxazol-2(3H)-on-5-yl)-N2-(3-aminocarbonylphenyl)-5-methylpyrimidine-2,4-diamine] | < 500 | 
5 | Cc1cnc(Nc2ccc(C(N)=O)cc2)nc1Nc1ccc2oc(=O)[nH]c2c1 [Compound I-3, N4-(benzo[d]oxazol-2(3H)-on-5-yl)-N2-(4-aminocarbonylphenyl)-5-methylpyrimidine-2,4-diamine] | < 500 | 
6 | Cc1cnc(Nc2ccc(C=O)cc2)nc1Nc1ccc2oc(=O)[nH]c2c1 [Compound I-4, N4-(benzo[d]oxazol-2(3H)-on-5-yl)-N2-(4-formylphenyl)-5-methylpyrimidine-2,4-diamine] | < 500 | 
7 | Cc1cc(Nc2ncc(C)c(Nc3ccc4oc(=O)[nH]c4c3)n2)ccc1N1CC2(C)CN(C)CC(C)(C1)C2 [Compound I-5, N4-(benzo[d]oxazol-2(3H)-on-5-yl)-N2-(3-methyl-4-(1,5,7-trimethyl-3,7-diazabicyclo[3.3.1]nonan-3-yl)phenyl)-5-methylpyrimidine-2,4-diamine] | 500 to 5000 | 
8 | Cc1cnc(Nc2ccc(N3CC4(C)CN(C)CC(C)(C3)C4)c(F)c2)nc1Nc1ccc2oc(=O)[nH]c2c1 [Compound I-6, N4-(benzo[d]oxazol-2(3H)-on-5-yl)-N2-(3-fluoro-4-(1,5,7-trimethyl-3,7-diazabicyclo[3.3.1]nonan-3-yl)phenyl)-5-methylpyrimidine-2,4-diamine] | < 500 | 
9 | CCCn1c(=O)oc2ccc(Nc3nc(Nc4cccc(S(C)(=O)=O)c4)ncc3C)cc21 [Compound I-7, N4-(3-n-propylbenzo[d]oxazol-2(3H)-on-5-yl)-N2-((3-methylsulfonyl)phenyl)-5-methylpyrimidine-2,4-diamine] |  | < 500
10 | CCCn1c(=O)oc2ccc(Nc3nc(Nc4ccc(NS(C)(=O)=O)cc4)ncc3C)cc21 [Compound I-8, N4-(3-n-propylbenzo[d]oxazol-2(3H)-on-5-yl)-N2-((4-methylsulfonylamino)phenyl)-5-methylpyrimidine-2,4-diamine] |  | < 500
11 | Cc1cnc(Nc2cccc(S(C)(=O)=O)c2)nc1Nc1ccc2oc(=O)n(C(C)C)c2c1 [Compound I-9, N4-(3-isopropylbenzo[d]oxazol-2(3H)-on-5-yl)-N2-((3-methylsulfonyl)phenyl)-5-methylpyrimidine-2,4-diamine] |  | < 500
12 | Cc1cnc(Nc2ccc(NS(C)(=O)=O)cc2)nc1Nc1ccc2oc(=O)n(C(C)C)c2c1 [Compound I-10, N4-(3-isopropylbenzo[d]oxazol-2(3H)-on-5-yl)-N2-((4-methylsulfonylamino)phenyl)-5-methylpyrimidine-2,4-diamine] |  | < 500
13 | Cc1cnc(Nc2cccc(S(N)(=O)=O)c2)nc1Nc1ccc2[nH]c(=O)[nH]c2c1 [Compound I-11, N4-(benzimidazolin-2-on-5-yl)-N2-((3-aminosulfonyl)phenyl)-5-methylpyrimidine-2,4-diamine] |  | < 500
14 | Cc1cnc(Nc2ccc(S(N)(=O)=O)cc2)nc1Nc1ccc2[nH]c(=O)[nH]c2c1 [Compound I-12, N4-(benzimidazolin-2-on-5-yl)-N2-((4-aminosulfonyl)phenyl)-5-methylpyrimidine-2,4-diamine] |  | > 10000
15 | NS(=O)(=O)c1ccc(Nc2ncc(F)c(Nc3ccc4[nH]c(=O)[nH]c4c3)n2)cc1 [Compound I-13, 5-(5-fluoro-2-(4-aminosulfonylphenylamino)pyrimidin-4-ylamino)-1H-benzo[d]imidazol-2(3H)-one] | 500 to 5000 | 
16 | Cc1cnc(Nc2cccc(S(N)(=O)=O)c2)nc1Nc1ccc2oc(=O)[nH]c2c1 [Compound I-14] |  | < 500
17 | Cc1cnc(Nc2ccc(S(N)(=O)=O)cc2)nc1Nc1ccc2oc(=O)[nH]c2c1 [Compound I-15] |  | < 500

Row | SMILES | IC50 (Homo sapiens, T-cell) [nM] | IC50 [nM]
18 | Cc1cnc(Nc2cccc(S(C)(=O)=O)c2)nc1Nc1ccc2oc(=O)[nH]c2c1 [Compound I-16] |  | < 500
19 | Cc1cnc(Nc2ccc(S(C)(=O)=O)cc2)nc1Nc1ccc2oc(=O)[nH]c2c1 [Compound I-17] |  | < 500
20 | NS(=O)(=O)c1cccc(Nc2ncc(F)c(Nc3ccc4oc(=O)[nH]c4c3)n2)c1 [Compound I-18] |  | < 500
21 | NS(=O)(=O)c1ccc(Nc2ncc(F)c(Nc3ccc4oc(=O)[nH]c4c3)n2)cc1 [Compound I-19] |  | < 500
22 | CS(=O)(=O)c1cccc(Nc2ncc(F)c(Nc3ccc4oc(=O)[nH]c4c3)n2)c1 [Compound I-20] |  | < 500
23 | CS(=O)(=O)c1ccc(Nc2ncc(F)c(Nc3ccc4oc(=O)[nH]c4c3)n2)cc1 [Compound I-21] |  | < 500
24 | Cc1cnc(Nc2cccc(S(C)(=O)=O)c2)nc1Nc1ccc2[nH]c(=O)[nH]c2c1 [Compound I-22, N4-(benzimidazolin-2-on-5-yl)-N2-(3-methylsulfonyl)phenyl-5-methylpyrimidine-2,4-diamine] |  | < 500
25 | CS(=O)(=O)c1ccc(Nc2ncc(F)c(Nc3ccc4[nH]c(=O)[nH]c4c3)n2)cc1 [Compound I-23, N4-(benzimidazolin-2-on-5-yl)-N2-(4-methylsulfonyl)phenyl-5-fluoropyrimidine-2,4-diamine] |  | > 10000
26 | Cc1ccc(Nc2ncc(C)c(Nc3ccc4oc(=O)[nH]c4c3)n2)cc1S(N)(=O)=O [Compound I-24, N4-(benzo[d]oxazol-2(3H)-on-5-yl)-N2-((3-aminosulfonyl-4-methyl)phenyl)-5-methylpyrimidine-2,4-diamine] |  | < 500
27 | Cc1cnc(Nc2cccc(S(=O)(=O)NC(C)(C)C)c2)nc1Nc1ccc2oc(=O)[nH]c2c1 [Compound I-25, N4-(benzo[d]oxazol-2(3H)-on-5-yl)-N2-((3-tert-butylaminosulfonyl)phenyl)-5-methylpyrimidine-2,4-diamine] |  | < 500
28 | Cc1cnc(Nc2cccc(C#N)c2)nc1Nc1ccc2oc(=O)[nH]c2c1 [Compound I-26, N4-(benzo[d]oxazol-2(3H)-on-5-yl)-N2-(3-cyanophenyl)-5-methylpyrimidine-2,4-diamine] | < 500 | 
29 | Cc1cnc(Nc2ccc(C#N)cc2)nc1Nc1ccc2oc(=O)[nH]c2c1 [Compound I-27, N4-(benzo[d]oxazol-2(3H)-on-5-yl)-N2-(4-cyanophenyl)-5-methylpyrimidine-2,4-diamine] | < 500 | 
30 | Cc1cnc(Nc2cccc(C#N)c2)nc1Nc1ccc2[nH]c(=O)[nH]c2c1 [Compound I-28, N4-(benzimidazolin-2-on-5-yl)-N2-(3-cyanophenyl)-5-methylpyrimidine-2,4-diamine] |  | < 500
31 | Cc1cnc(Nc2ccc(C#N)cc2)nc1Nc1ccc2[nH]c(=O)[nH]c2c1 [Compound I-29, N4-(benzimidazolin-2-on-5-yl)-N2-(4-cyanophenyl)-5-methylpyrimidine-2,4-diamine] |  | > 10000
32 | Cc1cnc(Nc2cccc(S(=O)(=O)N3CCOCC3)c2)nc1Nc1ccc2oc(=O)[nH]c2c1 [Compound I-30, N4-(benzo[d]oxazol-2(3H)-on-5-yl)-N2-(3-(morpholinosulfonyl)phenyl)-5-methylpyrimidine-2,4-diamine] | < 500 | 
33 | O=c1[nH]c2cc(Nc3nc(Nc4cccc(S(=O)(=O)N5CCOCC5)c4)ncc3F)ccc2o1 [Compound I-31, N4-(benzo[d]oxazol-2(3H)-on-5-yl)-N2-(3-(morpholinosulfonyl)phenyl)-5-fluoropyrimidine-2,4-diamine] | < 500 | 
